Patent US10660877B2 (BRISTOL-MYERS SQUIBB COMPANY, priority 2016, dated 2020)
Like-named read-outs stand apart in the source and are kept apart here.

Tests used:
human TLR7 = human TLR7 (Homo sapiens (Human), UniProt Q9NYK1); assay: TLR7 inhibition reporter assay (HEK-Blue cells, SEAP reporter, gardiquimod stimulation); format: cell-based; settings: HEK-Blue cells overexpressing human TLR7, gardiquimod 7.5 μM
human TLR8 = human TLR8 (Homo sapiens (Human), UniProt Q9NR97); assay: TLR8 inhibition reporter assay (HEK-Blue cells, SEAP reporter, R848 stimulation);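 also: compounds tested from 0.05 nM to 50 µM, 22 h at 37 °C, SEAP measured with HEK-Blue Detection, inhibition relative to agonist plus DMSO versus a known inhibitor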
human TLR9 = human TLR9 (Homo sapiens (Human), UniProt Q9NR96); assay: TLR9 inhibition reporter assay (HEK-Blue cells, SEAP reporter, ODN2006 stimulation);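 also: compounds tested over 0.05 nM to 50 µM, 22 h incubation, inhibition taken as SEAP signal drop from agonist plus DMSO wells toward a known inhibitor control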
[1] = read-out: TLR8 IC50, HEK-Blue cells overexpressing human TLR8, R848 15.9 μM
[2] = read-out: TLR9 IC50, HEK-Blue cells overexpressing human TLR9, ODN2006 5 nM

Chain of human TLR8 (Q9NR97 27-1041): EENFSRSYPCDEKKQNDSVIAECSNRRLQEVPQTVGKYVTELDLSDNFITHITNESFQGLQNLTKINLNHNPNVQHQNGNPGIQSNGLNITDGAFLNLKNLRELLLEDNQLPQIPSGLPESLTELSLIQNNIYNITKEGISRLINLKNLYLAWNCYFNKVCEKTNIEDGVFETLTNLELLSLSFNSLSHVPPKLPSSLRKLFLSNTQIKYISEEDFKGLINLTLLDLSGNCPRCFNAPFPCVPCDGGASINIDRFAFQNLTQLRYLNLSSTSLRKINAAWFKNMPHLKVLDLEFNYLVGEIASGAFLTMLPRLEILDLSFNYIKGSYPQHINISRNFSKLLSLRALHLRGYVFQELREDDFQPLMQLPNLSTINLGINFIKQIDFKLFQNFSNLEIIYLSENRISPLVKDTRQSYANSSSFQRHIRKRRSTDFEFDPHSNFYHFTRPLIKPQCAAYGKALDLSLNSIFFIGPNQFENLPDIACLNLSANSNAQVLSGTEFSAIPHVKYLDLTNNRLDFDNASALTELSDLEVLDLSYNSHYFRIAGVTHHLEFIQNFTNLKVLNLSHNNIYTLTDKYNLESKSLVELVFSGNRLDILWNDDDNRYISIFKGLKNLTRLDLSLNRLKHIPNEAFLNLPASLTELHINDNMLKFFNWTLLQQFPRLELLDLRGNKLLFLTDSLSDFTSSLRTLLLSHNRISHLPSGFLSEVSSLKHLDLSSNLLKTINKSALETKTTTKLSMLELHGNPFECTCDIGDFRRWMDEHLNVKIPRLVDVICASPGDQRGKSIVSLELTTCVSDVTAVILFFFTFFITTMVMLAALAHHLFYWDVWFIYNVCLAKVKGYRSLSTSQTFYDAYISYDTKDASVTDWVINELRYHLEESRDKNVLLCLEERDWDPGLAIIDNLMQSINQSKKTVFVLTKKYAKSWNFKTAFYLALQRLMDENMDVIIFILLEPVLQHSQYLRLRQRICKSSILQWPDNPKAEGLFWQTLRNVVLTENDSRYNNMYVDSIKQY
Chain of human TLR9 (Q9NR96 26-1032): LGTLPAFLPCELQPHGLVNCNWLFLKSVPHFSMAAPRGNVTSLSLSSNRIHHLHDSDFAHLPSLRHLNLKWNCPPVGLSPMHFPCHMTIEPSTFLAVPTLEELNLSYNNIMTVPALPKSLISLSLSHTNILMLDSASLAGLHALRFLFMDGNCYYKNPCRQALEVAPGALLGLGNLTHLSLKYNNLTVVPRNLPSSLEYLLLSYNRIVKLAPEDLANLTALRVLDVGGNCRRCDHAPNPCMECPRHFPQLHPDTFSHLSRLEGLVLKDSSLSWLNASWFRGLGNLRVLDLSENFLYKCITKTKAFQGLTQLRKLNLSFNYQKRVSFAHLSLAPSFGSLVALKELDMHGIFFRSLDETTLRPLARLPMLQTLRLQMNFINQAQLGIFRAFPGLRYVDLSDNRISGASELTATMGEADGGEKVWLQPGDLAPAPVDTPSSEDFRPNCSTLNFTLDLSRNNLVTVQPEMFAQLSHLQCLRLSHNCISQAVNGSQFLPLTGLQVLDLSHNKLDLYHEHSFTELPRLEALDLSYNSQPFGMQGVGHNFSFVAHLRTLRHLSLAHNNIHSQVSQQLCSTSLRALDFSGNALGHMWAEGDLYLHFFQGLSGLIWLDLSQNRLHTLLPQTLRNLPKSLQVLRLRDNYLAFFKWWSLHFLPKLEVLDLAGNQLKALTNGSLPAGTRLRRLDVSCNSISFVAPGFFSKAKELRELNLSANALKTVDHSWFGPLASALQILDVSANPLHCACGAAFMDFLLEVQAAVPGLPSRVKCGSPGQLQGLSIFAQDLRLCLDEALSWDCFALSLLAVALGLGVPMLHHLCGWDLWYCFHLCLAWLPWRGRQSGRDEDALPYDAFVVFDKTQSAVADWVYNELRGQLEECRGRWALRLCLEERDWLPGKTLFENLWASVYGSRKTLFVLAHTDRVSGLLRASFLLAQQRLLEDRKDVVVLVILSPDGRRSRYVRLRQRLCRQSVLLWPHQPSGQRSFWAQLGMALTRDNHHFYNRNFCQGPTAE
Chain of human TLR7 (Q9NYK1 27-1049): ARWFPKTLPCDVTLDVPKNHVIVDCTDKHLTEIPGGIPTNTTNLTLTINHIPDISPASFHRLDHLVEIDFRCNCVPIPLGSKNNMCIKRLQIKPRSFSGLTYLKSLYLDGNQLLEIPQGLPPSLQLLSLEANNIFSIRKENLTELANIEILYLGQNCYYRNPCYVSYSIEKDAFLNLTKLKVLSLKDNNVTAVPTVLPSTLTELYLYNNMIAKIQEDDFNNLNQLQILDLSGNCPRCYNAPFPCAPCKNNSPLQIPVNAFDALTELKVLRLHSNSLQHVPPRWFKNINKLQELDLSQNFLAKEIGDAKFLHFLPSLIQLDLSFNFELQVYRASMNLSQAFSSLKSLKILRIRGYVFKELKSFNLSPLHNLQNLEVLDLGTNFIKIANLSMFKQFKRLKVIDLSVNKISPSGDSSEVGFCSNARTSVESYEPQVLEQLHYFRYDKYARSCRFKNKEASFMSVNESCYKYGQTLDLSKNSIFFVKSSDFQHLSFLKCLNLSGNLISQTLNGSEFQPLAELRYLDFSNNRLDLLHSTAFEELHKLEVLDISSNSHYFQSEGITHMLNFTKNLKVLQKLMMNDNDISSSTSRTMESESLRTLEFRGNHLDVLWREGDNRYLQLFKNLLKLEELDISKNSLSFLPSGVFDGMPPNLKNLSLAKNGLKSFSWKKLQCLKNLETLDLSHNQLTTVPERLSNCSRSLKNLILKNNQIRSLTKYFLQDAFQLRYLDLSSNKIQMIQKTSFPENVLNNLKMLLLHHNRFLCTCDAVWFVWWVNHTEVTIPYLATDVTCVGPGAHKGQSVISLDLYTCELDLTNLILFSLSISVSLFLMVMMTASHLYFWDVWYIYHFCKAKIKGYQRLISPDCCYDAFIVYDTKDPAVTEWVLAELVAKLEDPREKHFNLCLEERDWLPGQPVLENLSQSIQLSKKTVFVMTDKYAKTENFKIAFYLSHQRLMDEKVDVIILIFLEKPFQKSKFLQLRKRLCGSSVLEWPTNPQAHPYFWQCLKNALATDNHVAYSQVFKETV

IC50 (human TLR7) [nM]	IC50 (human TLR8; [1]) [nM]	IC50 (human TLR9; [2]) [nM]	IC50 (human TLR8; TLR8 IC50, HEK-Blue cells overexpressing human TLR8, R848 15.9 μM) [nM]	IC50 (human TLR9; TLR9 IC50, HEK-Blue cells overexpressing human TLR9, ODN2006 5 nM) [nM]	SMILES
15.8	5.9	1590			Cc1cc(-c2[nH]c3ccc(C4CCN(C5CCOC5)CC4)cc3c2C(C)C)ccn1 (stereo not drawn) [Example 717, 3-isopropyl-2-(2-methylpyridin-4-yl)-5-(1-(tetrahydrofuran-3-yl)piperidin-4-yl)-1H-indole]
22.8	6.1	855			Cc1cc(-c2[nH]c3ccc(C4CCN(C5CCCOC5)CC4)cc3c2C(C)C)ccn1 (stereo not drawn) [Example 718, 3-isopropyl-2-(2-methylpyridin-4-yl)-5-(1-(tetrahydro-2H-pyran-3-yl)piperidin-4-yl)-1H-indole]
23.9	5.2	638			Cc1cc(-c2[nH]c3ccc(C4CCN(C5CCOC(C)(C)C5)CC4)cc3c2C(C)C)ccn1 (stereo not drawn) [Example 719, 5-(1-(2,2-dimethyltetrahydro-2H-pyran-4-yl)piperidin-4-yl)-3-isopropyl-2-(2-methylpyridin-4-yl)-1H-indole]
51	82.5	2900			COc1cc(-c2[nH]c3ccc(C4CCN(C5CCOCC5)CC4)cc3c2C(C)C)ccn1 [Example 720, 3-isopropyl-2-(2-methoxypyridin-4-yl)-5-(1-(tetrahydro-2H-pyran-4-yl)piperidin-4-yl)-1H-indole]
13.8	7.4	19800			Cc1cc(-c2[nH]c3ccc(C4CCN(C5COC5)CC4)cc3c2C(C)C)c(F)cn1 [Example 721, 2-(5-fluoro-2-methylpyridin-4-yl)-3-isopropyl-5-(1-(oxetan-3-yl)piperidin-4-yl)-1H-indole]
24.4	6.3	5890			Cc1cc(-c2[nH]c3ccc(C4CCN(C5COC5)CC4)cc3c2C(C)C)c(C)cn1 [Example 722, 2-(2,5-dimethylpyridin-4-yl)-3-isopropyl-5-(1-(oxetan-3-yl)piperidin-4-yl)-1H-indole]
78.4	8.4	14500			Cc1cc(-c2[nH]c3ccc(C4CCN(Cc5ncn(C)n5)CC4)cc3c2C(C)C)c(C)cn1 [Example 723, 2-(2,5-dimethylpyridin-4-yl)-3-isopropyl-5-(1-((1-methyl-1H-1,2,4-triazol-3-yl)methyl)piperidin-4-yl)-1H-indole]
3	4.5	2990			Cc1cc(-c2[nH]c3ccc(C4CCN(C5CCOC5)CC4)cc3c2C(C)C)c(F)cn1 (stereo not drawn) [Example 725, 2-(5-fluoro-2-methylpyridin-4-yl)-3-isopropyl-5-(1-(tetrahydrofuran-3-yl)piperidin-4-yl)-1H-indole]
14.2	1.1	1450			Cc1cc(-c2[nH]c3ccc(C4CCN(C5CCCOC5)CC4)cc3c2C(C)C)c(C)cn1 (stereo not drawn) [Example 726, 2-(2,5-dimethylpyridin-4-yl)-3-isopropyl-5-(1-(tetrahydro-2H-pyran-3-yl)piperidin-4-yl)-1H-indole]
7.3	3.5	2920			Cc1cc(-c2[nH]c3ccc(C4CCN(C5CCCOC5)CC4)cc3c2C(C)C)c(F)cn1 (stereo not drawn) [Example 727, 2-(5-fluoro-2-methylpyridin-4-yl)-3-isopropyl-5-(1-(tetrahydro-2H-pyran-3-yl)piperidin-4-yl)-1H-indole]
6.7	1.1	1340			Cc1cc(-c2[nH]c3ccc(C4CCN(C5CCOC5)CC4)cc3c2C(C)C)c(C)cn1 (stereo not drawn) [Example 728, 2-(2,5-dimethylpyridin-4-yl)-3-isopropyl-5-(1-(tetrahydrofuran-3-yl)piperidin-4-yl)-1H-indole]
10.1	33.6	3620			Cc1cc(-c2[nH]c3ccc(C4CCN(C5COC5)CC4)cc3c2C(C)C)c(F)c(C)n1 [Example 729, 2-(3-fluoro-2,6-dimethylpyridin-4-yl)-3-isopropyl-5-(1-(oxetan-3-yl)piperidin-4-yl)-1H-indole]
9.2	8.2	9410			Cc1nccc(-c2[nH]c3ccc(C4CCN(C5COC5)CC4)cc3c2C(C)C)c1F [Example 730, 2-(3-fluoro-2-methylpyridin-4-yl)-3-isopropyl-5-(1-(oxetan-3-yl)piperidin-4-yl)-1H-indole]
8.9	2.7	1310			COc1ncc(CN2CCC(c3ccc4[nH]c(-c5ccnc(C)c5F)c(C(C)C)c4c3)CC2)cn1 [Example 731, 2-(3-fluoro-2-methylpyridin-4-yl)-3-isopropyl-5-(1-((2-methoxypyrimidin-5-yl)methyl)piperidin-4-yl)-1H-indole]
22.5	10.3	10100			Cc1nccc(-c2[nH]c3ccc(C4CCN(Cc5ncn(C)n5)CC4)cc3c2C(C)C)c1F [Example 732, 2-(3-fluoro-2-methylpyridin-4-yl)-3-isopropyl-5-(1-((1-methyl-1H-1,2,4-triazol-3-yl)methyl)piperidin-4-yl)-1H-indole]
11.1	4.2	1810			COc1ncc(CN2CCC(c3ccc4[nH]c(-c5cc(C)ncc5F)c(C(C)C)c4c3)CC2)cn1 [Example 733, 2-(5-fluoro-2-methylpyridin-4-yl)-3-isopropyl-5-(1-((2-methoxypyrimidin-5-yl)methyl)piperidin-4-yl)-1H-indole]
13.8	6.8	8990			Cc1cc(-c2[nH]c3ccc(C4CCN(Cc5ncon5)CC4)cc3c2C(C)C)c(C)cn1 [Example 734, 3-((4-(2-(2,5-dimethylpyridin-4-yl)-3-isopropyl-1H-indol-5-yl)piperidin-1-yl)methyl)-1,2,4-oxadiazole]
22.3	50	> 50000			Cc1cc(-c2[nH]c3ccc(C4CCN(Cc5ncon5)CC4)cc3c2C(C)C)c(F)cn1 [Example 735, 3-((4-(2-(5-fluoro-2-methylpyridin-4-yl)-3-isopropyl-1H-indol-5-yl)piperidin-1-yl)methyl)-1,2,4-oxadiazole]
42.3	6.5	20100			Cc1cc(-c2[nH]c3ccc(C4CCN(Cc5nncn5C)CC4)cc3c2C(C)C)c(C)cn1 [Example 736, 2-(2,5-dimethylpyridin-4-yl)-3-isopropyl-5-(1-((4-methyl-4H-1,2,4-triazol-3-yl)methyl)piperidin-4-yl)-1H-indole]
14.5	5.1	> 50000			Cc1cc(-c2[nH]c3ccc(C4CCN(Cc5nncn5C)CC4)cc3c2C(C)C)c(F)cn1 [Example 737, 2-(5-fluoro-2-methylpyridin-4-yl)-3-isopropyl-5-(1-((4-methyl-4H-1,2,4-triazol-3-yl)methyl)piperidin-4-yl)-1H-indole]
11.2	2.5	282			Cc1cc(-c2[nH]c3ccc(C4CCN(C[C@@H]5CCNC5)CC4)cc3c2C(C)C)ccn1 [Example 738, (R)-3-isopropyl-2-(2-methylpyridin-4-yl)-5-(1-(pyrrolidin-3-ylmethyl)piperidin-4-yl)-1H-indole]
120	8.2	96			CCc1c(-c2ccnc(C)c2)[nH]c2ccc(C3CCN(C[C@@H]4CCNC4)CC3)cc12 [Example 739, (R)-3-ethyl-2-(2-methylpyridin-4-yl)-5-(1-(pyrrolidin-3-ylmethyl)piperidin-4-yl)-1H-indole]
67.9			6	111	CCc1c(-c2ccnc(C)c2)[nH]c2ccc(C3CCN(C[C@@H]4CCCN4)CC3)cc12 [Example 740, (S)-3-ethyl-2-(2-methylpyridin-4-yl)-5-(1-(pyrrolidin-2-ylmethyl)piperidin-4-yl)-1H-indole]
172	32.7	213			CCc1c(-c2ccnc(C)c2)[nH]c2ccc(C3CCN(C[C@@H]4CCCN4C(C)C)CC3)cc12 [Example 741, (S)-3-ethyl-5-(1-((1-isopropylpyrrolidin-2-yl)methyl)piperidin-4-yl)-2-(2-methylpyridin-4-yl)-1H-indole]
9.2	5.5	101			Cc1cc(-c2[nH]c3ccc(C4CCN(CC5CCN(C(C)C)CC5)CC4)cc3c2C(C)C)ccn1 [Example 742, 3-isopropyl-5-(1-((1-isopropylpiperidin-4-yl)methyl)piperidin-4-yl)-2-(2-methylpyridin-4-yl)-1H-indole]
6.5	5.1	282			Cc1cc(-c2[nH]c3ccc(C4CCN(CC5CCN(C)CC5)CC4)cc3c2C(C)C)ccn1 [Example 743, 3-isopropyl-5-(1-((1-methylpiperidin-4-yl)methyl)piperidin-4-yl)-2-(2-methylpyridin-4-yl)-1H-indole]
28.1	13.5	281			Cc1cc(-c2[nH]c3ccc(C4CCN(Cc5[nH]cnc5C)CC4)cc3c2C(C)C)ccn1 [Example 744, 3-isopropyl-5-(1-((4-methyl-1H-imidazol-5-yl)methyl)piperidin-4-yl)-2-(2-methylpyridin-4-yl)-1H-indole]
4030	> 50000	69			CNCCN1CCC(c2ccc3[nH]c(-c4ccnc(N5CCN(C)CC5)c4)c(C)c3c2)CC1 [Example 746, N-methyl-2-(4-(3-methyl-2-(2-(4-methylpiperazin-1-yl)pyridin-4-yl)-1H-indol-5-yl)piperidin-1-yl)ethan-1-amine]
472	55.6	324			CNCCN1CCC(c2ccc3[nH]c(-c4ccnc(Cl)c4)c(C)c3c2)CC1 [Example 751, 2-(4-(2-(2-chloropyridin-4-yl)-3-methyl-1H-indol-5-yl)piperidin-1-yl)-N-methylethan-1-amine]
